Measurements taken from the supplement of paper PMC10307832.

Key:
Assay in all cases: relative viability (nuclei count vs DMSO), 5 days (fraction); higher = more cells survive
[1] = compound: C1COCCN1C2=NC(=NC3=C2OC4=C3C=CC=N4)C5=CC(=CC=C5)NC(=O)C6=CN=C(C=C6)N + Cc1cc(Nc2cc(N3CCN(C)CC3)nc(Sc3ccc(NC(=O)C4CC4)cc3)n2)n[nH]1 [Tozasertib] (partner 0.1 µM)
Procedure, shortened: (§1)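 Lung cancer cell lines were pin-tool dosed in 1536-well plates on the day after seeding, with either a lone drug or a fixed anchor-drug dose plus five library-drug doses (not always all listed) in √10 steps. Nuclei were counted on 4× images after 5 days. Relative viability is the ratio of treated-well to vehicle-well nuclei counts, with each value a median of duplicate plates.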

Entinostat + Pictilisib = compound: Nc1ccccc1NC(=O)c1ccc(CNC(=O)OCc2cccnc2)cc1 [Entinostat] + CS(=O)(=O)N1CCN(Cc2cc3nc(-c4cccc5[nH]ncc45)nc(N4CCOCC4)c3s2)CC1 [Pictilisib] (partner 1 µM)
Procedure, shortened: as §1

Entinostat + Olaparib = compound: Nc1ccccc1NC(=O)c1ccc(CNC(=O)OCc2cccnc2)cc1 [Entinostat] + O=C(c1cc(Cc2n[nH]c(=O)c3ccccc23)ccc1F)N1CCN(C(=O)C2CC2)CC1 [Olaparib] (partner 8 µM)
Procedure, shortened: as §1

Entinostat + Bortezomib = compound: Nc1ccccc1NC(=O)c1ccc(CNC(=O)OCc2cccnc2)cc1 [Entinostat] + CC(C)C[C@H](NC(=O)[C@H](Cc1ccccc1)NC(=O)c1cnccn1)B(O)O [Bortezomib] (partner 0.002 µM)
Procedure, shortened: as §1

| Cell Line | relative viability ([1]; first compound 0.02 µM) | relative viability ([1]; first compound 0.06325 µM) | relative viability ([1]; first compound 0.2 µM) | relative viability ([1]; first compound 0.6325 µM) | relative viability ([1]; first compound 2 µM) | relative viability (Entinostat + Pictilisib; first compound 0.02 µM) | relative viability (Entinostat + Pictilisib; first compound 0.06325 µM) | relative viability (Entinostat + Pictilisib; first compound 0.2 µM) | relative viability (Entinostat + Pictilisib; first compound 0.6325 µM) | relative viability (Entinostat + Pictilisib; first compound 2 µM) | relative viability (Entinostat + Olaparib; first compound 0.02 µM) | relative viability (Entinostat + Olaparib; first compound 0.06325 µM) | relative viability (Entinostat + Olaparib; first compound 0.2 µM) | relative viability (Entinostat + Olaparib; first compound 0.6325 µM) | relative viability (Entinostat + Olaparib; first compound 2 µM) | relative viability (Entinostat + Bortezomib; first compound 0.02 µM) | relative viability (Entinostat + Bortezomib; first compound 0.06325 µM) | relative viability (Entinostat + Bortezomib; first compound 0.2 µM) | relative viability (Entinostat + Bortezomib; first compound 0.6325 µM) | relative viability (Entinostat + Bortezomib; first compound 2 µM) |
| --- | --- | --- | --- | --- | --- | --- | --- | --- | --- | --- | --- | --- | --- | --- | --- | --- | --- | --- | --- | --- |
| HCC-366 | 0.0782 | 0.144 | 0.0599 | 0.0546 | 0.0428 | 0.163 | 0.232 | 0.168 | 0.194 | 0.082 | 0.343 | 0.311 | 0.212 | 0.132 | 0.0516 | 1.08 | 1.15 | 0.831 | 0.41 | 0.0738 |
| NCI-H2405 | 0.762 | 0.75 | 0.715 | 0.73 | 0.607 | 0.483 | 0.678 | 0.545 | 0.393 | 0.222 | 0.843 | 0.895 | 0.861 | 0.72 | 0.623 | 1.01 | 1.04 | 0.976 | 0.916 | 0.653 |
| NCI-H1650 | 0.472 | 0.425 | 0.328 | 0.338 | 0.255 | 0.65 | 0.67 | 0.554 | 0.407 | 0.248 | 0.828 | 0.967 | 0.819 | 0.527 | 0.363 | 0.194 | 0.226 | 0.2 | 0.214 | 0.214 |
| NCI-H1355 | 0.628 | 0.602 | 0.515 | 0.36 | 0.352 | 0.473 | 0.411 | 0.389 | 0.254 | 0.201 | 0.669 | 0.698 | 0.647 | 0.535 | 0.356 | 1.19 | 1.16 | 0.951 | 0.725 | 0.603 |
| NCI-H1734 | 0.272 | 0.254 | 0.257 | 0.229 | 0.186 | 0.454 | 0.513 | 0.459 | 0.41 | 0.289 | 0.0279 | 0.637 | 0.621 | 0.563 | 0.356 | 0.895 | 1.1 | 1.06 | 0.753 | 0.472 |
| LXF-289 | 0.177 | 0.181 | 0.156 | 0.145 | 0.119 | 0.78 | 0.81 | 0.657 | 0.393 | 0.191 | 1.07 | 0.978 | 0.875 | 0.714 | 0.523 | 1.01 | 0.986 | 0.96 | 0.725 | 0.646 |
| PC-3 [JPC-3] | 0.914 | 0.932 | 0.85 | 0.893 | 0.507 | 0.684 | 0.746 | 0.623 | 0.387 | 0.306 | 1.14 | 1.12 | 1.04 | 0.663 | 0.456 | 0.853 | 0.814 | 0.824 | 0.409 | 0.508 |
| NCI-H2087 | 0.249 | 0.265 | 0.202 | 0.258 | 0.209 | 0.741 | 0.822 | 0.826 | 0.353 | 0.315 | 0.498 | 0.554 | 0.511 | 0.329 | 0.206 | 0.883 | 0.837 | 0.761 | 0.425 | 0.274 |
| HCC-78 | 0.394 | 0.427 | 0.432 | 0.367 | 0.24 | 0.212 | 0.194 | 0.178 | 0.108 | 0.128 | 0.771 | 0.722 | 0.577 | 0.386 | 0.355 | 0.551 | 0.389 | 0.27 | 0.217 | 0.213 |
| NCI-H2228 | 0.227 | 0.204 | 0.193 | 0.213 | 0.186 | 0.289 | 0.285 | 0.292 | 0.253 | 0.161 | 0.633 | 0.749 | 0.613 | 0.254 | 0.176 | 0.815 | 0.831 | 1.05 | 0.462 | 0.204 |
| H3255 | 0.779 | 0.639 | 0.736 | 0.847 | 0.957 | 0.475 | 0.395 | 0.301 | 0.202 | 0.168 | 0.606 | 0.51 | 0.454 | 0.364 | 0.308 | 0.797 | 0.844 | 0.577 | 0.401 | 0.28 |
| HCC-15 | 0.462 | 0.438 | 0.19 | 0.205 | 0.208 | 0.714 | 0.663 | 0.626 | 0.188 | 0.266 | 0.684 | 0.617 | 0.56 | 0.377 | 0.201 | 1.02 | 0.945 | 0.876 | 0.403 | 0.413 |
| NCI-H727 | 0.668 | 0.839 | 0.599 | 0.467 | 0.524 | 0.357 | 0.355 | 0.689 | 0.2 | 0.219 | 0.73 | 0.735 | 0.642 | 0.677 | 0.532 | 0.714 | 0.965 | 0.754 | 0.574 | 0.329 |
| NCI-H2023 | 0.371 | 0.369 | 0.158 | 0.142 | 0.13 | 0.173 | 0.182 | 0.146 | 0.126 | 0.0933 | 0.327 | 0.253 | 0.185 | 0.0826 | 0.0815 | 0.859 | 0.85 | 0.411 | 0.166 | 0.105 |
| HCC-44 | 0.882 | 1.04 | 0.829 | 0.766 | 0.546 | 0.641 | 0.644 | 0.392 | 0.176 | 0.417 | 0.957 | 0.906 | 0.93 | 0.875 | 0.7 | 0.861 | 0.758 | 0.698 | 0.373 | 0.269 |
| ChaGo-K-1 | 0.217 | 0.23 | 0.197 | 0.228 | 0.224 | 0.917 | 0.645 | 0.68 | 0.411 | 0.471 | 0.426 | 0.425 | 0.497 | 0.358 | 0.331 | 1.41 | 1.02 | 1.09 | 0.94 | 0.623 |
